Reference: ChEMBL document CHEMBL5034043, “Bifunctional Compounds as SMARCA2 Degraders for Treating Cancer” (ACS Med Chem Lett, 2022)

Biological target: SWI/SNF-related matrix-associated actin-dependent regulator of chromatin subfamily A member 2 (Homo sapiens, UniProt P51531)
Assay: Induction of degradation of HiBit-tagged SMARCA2 in human A549 cells incubated for 6 hrs by NanoGlo HiBiT lytic assay
Format: cell-based

Chain of SWI/SNF-related matrix-associated actin-dependent regulator of chromatin subfamily A member 2 (P51531 whole entry): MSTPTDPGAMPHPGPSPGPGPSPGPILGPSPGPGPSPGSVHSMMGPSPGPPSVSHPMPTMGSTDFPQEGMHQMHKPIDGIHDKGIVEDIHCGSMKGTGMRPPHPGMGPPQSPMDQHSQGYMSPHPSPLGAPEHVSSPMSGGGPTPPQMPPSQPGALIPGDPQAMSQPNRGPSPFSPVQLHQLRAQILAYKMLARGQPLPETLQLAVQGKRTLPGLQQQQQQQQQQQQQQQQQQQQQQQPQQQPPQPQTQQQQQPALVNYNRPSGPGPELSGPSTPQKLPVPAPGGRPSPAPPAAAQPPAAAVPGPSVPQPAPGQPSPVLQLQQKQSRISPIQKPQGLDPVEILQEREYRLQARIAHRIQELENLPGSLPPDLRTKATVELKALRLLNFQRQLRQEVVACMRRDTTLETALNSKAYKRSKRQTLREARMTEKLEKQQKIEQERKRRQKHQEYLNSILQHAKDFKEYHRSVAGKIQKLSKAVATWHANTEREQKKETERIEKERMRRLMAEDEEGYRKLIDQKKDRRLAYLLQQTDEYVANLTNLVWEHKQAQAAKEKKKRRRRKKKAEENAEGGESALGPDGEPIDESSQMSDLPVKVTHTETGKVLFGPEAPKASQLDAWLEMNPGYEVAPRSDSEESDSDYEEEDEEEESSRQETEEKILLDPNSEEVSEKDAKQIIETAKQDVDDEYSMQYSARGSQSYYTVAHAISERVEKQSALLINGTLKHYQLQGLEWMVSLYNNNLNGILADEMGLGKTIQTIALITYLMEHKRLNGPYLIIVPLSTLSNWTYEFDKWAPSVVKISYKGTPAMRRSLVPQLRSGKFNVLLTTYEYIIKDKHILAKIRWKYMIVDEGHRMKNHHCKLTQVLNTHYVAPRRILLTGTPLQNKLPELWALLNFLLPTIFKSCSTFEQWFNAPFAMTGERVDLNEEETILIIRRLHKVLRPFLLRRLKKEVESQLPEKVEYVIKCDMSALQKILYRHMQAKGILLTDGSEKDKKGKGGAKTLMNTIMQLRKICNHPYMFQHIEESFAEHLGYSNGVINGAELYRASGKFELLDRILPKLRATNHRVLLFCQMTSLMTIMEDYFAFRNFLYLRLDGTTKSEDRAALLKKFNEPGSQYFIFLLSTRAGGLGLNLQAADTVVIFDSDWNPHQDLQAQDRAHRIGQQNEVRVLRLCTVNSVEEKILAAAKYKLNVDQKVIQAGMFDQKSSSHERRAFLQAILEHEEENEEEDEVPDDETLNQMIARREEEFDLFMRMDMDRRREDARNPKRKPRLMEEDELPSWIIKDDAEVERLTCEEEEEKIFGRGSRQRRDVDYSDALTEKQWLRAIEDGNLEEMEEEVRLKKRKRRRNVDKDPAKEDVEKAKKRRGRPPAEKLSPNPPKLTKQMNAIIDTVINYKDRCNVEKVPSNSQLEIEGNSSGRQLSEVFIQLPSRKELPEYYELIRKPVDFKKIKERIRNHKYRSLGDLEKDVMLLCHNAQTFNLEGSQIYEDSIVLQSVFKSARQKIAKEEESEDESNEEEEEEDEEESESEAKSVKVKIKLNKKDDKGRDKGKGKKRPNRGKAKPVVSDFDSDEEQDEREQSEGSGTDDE

SMILES | DC50 [nM]
Nc1nnc(-c2ccccc2O)cc1N1CC(Oc2cccc(CN3CCN(C(=O)CN4CCC(c5ccc(NC6CCC(=O)NC6=O)cc5)CC4)CC3)c2)C1 (stereo unspecified) | 3
Nc1nnc(-c2ccccc2O)cc1N1CC2CCC(C1)N2c1cccc(OCCN2CCN(CC3CCN(c4ccc5c(c4)C(=O)N(C4CCC(=O)NC4=O)C5=O)CC3)CC2)c1 (stereo unspecified) | 2
Nc1nnc(-c2ccccc2O)cc1N1CC2CCC(C1)N2c1cccc(OCCN2CCN(CCCC3CCN(c4ccc5c(c4)C(=O)N(C4CCC(=O)NC4=O)C5=O)CC3)CC2)c1 (stereo unspecified) | 2
Nc1nnc(-c2ccccc2O)cc1N1CCC(C(=O)N2CCC(C(=O)N3CCN(c4ccc(C5CCC(=O)NC5=O)cc4)CC3)CC2)(c2ccccc2)CC1 (stereo unspecified) | 3
Nc1nnc(-c2cc(F)ccc2O)cc1N1CC2CCC(C1)N2c1cccc(CN2CCN(C(=O)C3CCN(c4ccc5c(c4)C(=O)N(C4CCC(=O)NC4=O)C5=O)CC3)CC2)c1 (stereo unspecified) | 3
Nc1nnc(-c2ccccc2O)cc1N1CCN(c2cccc(CN3CCN(C(=O)C4CCN(c5ccc6c(c5)C(=O)N(C5CCC(=O)NC5=O)C6=O)CC4)CC3)c2)C2(CC2)C1 (stereo unspecified) | 4
